According to paper PMC2904697, “A Screen for Kinetochore-Microtubule Interaction Inhibitors Identifies Novel Antitubulin Compounds” (PLoS ONE, 2010):

Legend:
αβ-tubulin = test: Tubulin polymerization tracked turbidimetrically at 350 nm; assay type: biochemical; settings: for IC50: 10 µmol/l αβ-tubulin, GTP-containing buffer, turbidity 350 nm, read-out: IC50 for inhibition of tubulin polymerization
Procedure: (§1) To quantify the antitubulin activity of compound B, we added 1–50 µmol/l compound B to 10 µmol/l αβ-tubulin. […] For this purpose, MTs were assembled from 10 µmol/l αβ-tubulin; 5 min into the reaction compound B was added in concentrations up to 200 µmol/l. MT depolymerization was tracked as a decrease in turbidity at 350 nm (Fig. 5B).
(§2) Polymerization of 10 µmol/l αβ-tubulin in BRB-80 buffer was monitored turbidimetrically at 350 nm for 15 min in a temperature-controlled spectrophotometer (37°C; SpectraMax Plus^384, Molecular Devices). To probe the effect of a compound on MT stability the molecule was added 5 min after initiation of tubulin assembly. The decrease in protein turbidity (350 nm) resulting from MT depolymerization was followed for 15 min at 37°C [13]. Quantitative comparisons of drug effects on tubulin assembly were also examined in 0.8 M glutamate with a 15 min drug-tubulin preincubation prior to the addition of GTP [14]. Tubulin assembly was monitored for 20 min at 30°C in Beckman DU7400/7500 spectrophotometers, and the compound concentration inhibiting tubulin assembly by 50% was determined.

[1] = test system: MTs assembled from αβ-tubulin; test: Depolymerization of non-stabilized MTs in vitro (turbidity at 350 nm); assay type: biochemical; settings: for Fold difference between concentration inhibiting tubulin polymerization and that needed to disassemble MTs: Fig. 5B versus Fig. 5A
Procedure: as §1, §2

HeLa cells [2] = test: Spindle integrity and reversibility in HeLa cells (confocal IF imaging); assay type: cell-based, human; settings: for Time after washout until all cells had arrested with a mitotic spindle (reversibility): compound B 5 µmol/l, washout and release into MG132 containing medium
Procedure: (§3) At compound B concentrations of 5 µmol/l and above, the cells arrested robustly in metaphase (∼15 h) and then underwent cell death, as diagnosed by cell shrinkage (Fig. 3B). […] This phenotype is indicative of chromatids being unable to bind to spindle MTs and/or of spindle defects, as observed with nocodazole (Fig. 3C). […] Because drugs that inhibit tubulin polymerization also destabilize MTs, we next probed whether compound B destabilized metaphase spindles. We arrested HeLa cells in metaphase using 10 µmol/l of proteosome inhibitor MG132. […] Thus, compound B prevents tubulin assembly and destabilizes spindle MTs in cells.
To probe whether the activity of compound B is reversible or not, we synchronously released G1/S arrested HeLa cells into fresh medium containing 5 µmol/l compound B (nocodazole was used as the positive control). The cells efficiently arrested in […] due to absence of a mitotic spindle (Fig. 3E, left column of images in each set). Compound B and nocodazole were then washed out and the cells were released in MG132 containing medium.
G1/S synchronization with 2.5 mmol/l thymidine was carried out for 16 h. IF imaging (Leica TCS SP2 confocal microscope) was performed on cells fixed with 4% paraformaldehyde, permeabilized with 0.1% Triton X-100 and treated with 4% BSA. The cells were incubated with appropriate antibodies diluted in 4% BSA in PBS. Primary antibodies used in IF imaging were mouse monoclonal antiNdc80 antibody (1∶1000, Genetex Clone 9G3.23), CREST serum (1∶50, Antibodies Incorporation) and mouse monoclonal anti-α-tubulin antibody (1∶2000, Sigma-Aldrich Clone B512). Secondary antibodies used were Alexa Fluor 488 (1∶150), Cy3 (1∶400) and Cy5 (1∶50) (Jackson Immunoresearch).

[3] = test system: colchicine site in αβ-tubulin; test: [3H]colchicine competition (DEAE-cellulose filter method); assay type: binding; settings: [3H]colchicine 5 µmol/l, tubulin 1 µmol/l
From the text: Agents that inhibit tubulin polymerization and destabilize MTs include the colchicinoids, combretastatins, benzimidazole carbamates, vinca alkaloids, and maytansinoids. These drugs act primarily at β-tubulin in the αβ-heterodimer, albeit at different sites. Colchicinoids, combretastatins and benzimidazole carbamates (e.g. nocodazole) localize to the colchicine site near the C-terminus of β-tubulin at the αβ-tubulin intradimer interface, [16], whereas vinca alkaloids and maytansinoids localize to the N-terminal GTPase domain of β-tubulin [17], [18]. […] Its binding affinity, however, was ∼3-fold lower than that of nocodazole (compare values at 5 µmol/l and 20 µmol/l, Fig. 5C).
Tubulin binding of [^3H]colchicine was measured by the DEAE-cellulose filter method. Reaction mixtures contained 1.0 µmol/l αβ-tubulin, 1.0 mol/l monosodium glutamate, 0.1 mol/l glucose-1-phosphate, 1.0 mmol/l MgCl2, 1.0 mmol/l GTP, 0.5 mg/ml BSA, 5% DMSO, 5 µmol/l [^3H]colchicine, and inhibitor at 1, 5, 20 or 50 µmol/l. These reaction conditions strongly stabilize the colchicine-binding activity of tubulin [21].

HeLa cells [4] = test: Mitotic delay and cell death in G1/S-synchronized HeLa cells (time-lapse videomicroscopy); assay type: cell-based, human
Procedure: as §3
Next, we determined whether the elevated antitubulin activities of compounds A6, A8, D7 and E7 (versus compound B), and the discrepancies in activity between the compounds themselves were reflected in their effects on mitosis. G1/S synchronized HeLa cells were released into growth medium containing 100 or 500 nmol/l of these compounds or compound B; the duration of the mitotic delay by the compounds and the percentage of cells undergoing subsequent cell death were scored. […] The four compounds triggered mitotic delays to an extent that directly reflects their activities in vitro (compare Fig. 6E and Fig. 6, panels B to D). […] Of note, each of our compounds acted in cells with an efficacy exceeding those measured in vitro (compare Fig. 6E and Fig. 5). This discrepancy may be due to increased compound:tubulin ratios in cells. Alternatively, the compounds may be modified intracellularly, resulting in enhanced activity. Because compound B and the four second-generation compounds are 6-furan-2-yl-3-methyl-4-oxo-4,5,6,7-tetrahydro-1H-indole-2-carboxylic acid derivatives, we have named these tubulin inhibitors “furan-metoticas”.

[5] = test system: hTERT RPE-1, HCT-116 and A2780 cell lines; test: Viability analysis (CellTiter 96 Assay); assay type: cell-based; settings: Homo sapiens, 72 h, A2780 and HCT-116 cells, 3 d, 1–1000 nmol/l, read-out: IC50 for killing of cells (viability)
Procedure: RPE, a telomerase-immortalized cell line derived from retinal pigment epithelium, served as the non-cancer control. Antitubulin agents colchicine and nocodazole were used as controls for drug activity. The RPE, A2780, and HCT-116 cells were efficiently killed by compound A8 and the control drugs.
Viability analysis in the presence of antitubulin drugs was performed on hTERT RPE-1 (ATCC), HCT-116 (ATCC), and A2780 (EACC) cell lines. Cell lines were authenticated by PCR [22]. Absence of eight commonly encountered mycoplasma species was confirmed by PCR [23]. Experiments were performed with freshly thawed cells, which were seeded in 96-well MICROTEST tissue culture plates (Falcon) at ∼500 cells/well and grown at 37°C. After 6 h, nocodazole, colchicine or compound A8 were added (1–1000 nmol/l). The cells were incubated for 3 d at 37°C and then assayed for viability (CellTiter 96 Assay, Promega).

| Fold lower IC50 for inhibiting tubulin assembly than that of compound B (αβ-tubulin; turbidimetric, versus compound B) [fold] | Fold more active than compound B as inhibitors of [3H]colchicine-tubulin binding [3] [fold] | Binding affinity for the colchicine site, fold lower than that of nocodazole ([3]; values at 5 and 20 µmol/l compared) [fold] | Inhibition of [3H]colchicine binding to tubulin ([3]; compound 1–50 µmol/l) | Structure (SMILES) | IC50 (αβ-tubulin) [nM] | Fold more effective than compound B in inhibiting tubulin polymerization (αβ-tubulin; versus compound B) [fold] | Fold difference between concentration inhibiting tubulin polymerization and that needed to disassemble MTs [1] | Drug:tubulin molar ratio at which MT stability is affected / MT depolymerization induced ([1]; MTs from 10 µmol/l αβ-tubulin, compound added 5 min into the reaction) | Time after washout until all cells had arrested with a mitotic spindle (reversibility) (HeLa cells [2]; HeLa) [h] | Ability to depolymerize MTs, fold higher than that of compound B ([1]; non-stabilized MTs in vitro) [fold] | Ability to depolymerize MTs, higher than that of nocodazole ([1]; non-stabilized MTs in vitro) [%] | Effect on mitosis at 500 nmol/l (HeLa cells [4]; HeLa released from G1/S, 500 nmol/l) | IC50 [5] [nM] | Concentration inducing a mitotic delay (HeLa cells [4]; HeLa released from G1/S) [µmol/L] | Concentration inducing cell death (HeLa cells [4]; HeLa released from G1/S) [µmol/L] | Duration of metaphase arrest (HeLa cells [4]; HeLa, compound concentrations of 5 µmol/l and above, followed by cell death) [h] | Effect on metaphase spindles of MG132-arrested cells (HeLa cells [2]; HeLa arrested with 10 µmol/l MG132, 10 µmol/l compound) | Spindle formation in cells released from G1/S (HeLa cells [2]; HeLa, 10 µmol/l compound, confocal IF) |
| --- | --- | --- | --- | --- | --- | --- | --- | --- | --- | --- | --- | --- | --- | --- | --- | --- | --- | --- |
| 4.2 | 3 |  |  | CCSCCOC(=O)c1[nH]c2c(c1C)C(=O)C[C@@H](c1ccco1)C2 [A8] |  |  |  |  |  | 12 | 10 | robust mitotic block, followed by cell death | 25 |  |  |  |  |  |
|  |  | ~3 | significantly inhibited | Cc1c(C(=O)OCC2CCCO2)[nH]c2c1C(=O)CC(c1ccco1)C2 (stereo not drawn) [compound B, 6-furan-2-yl-3-methyl-4-oxo-4,5,6,7,-tetrahydro-1H-indole-2-carboxylic acid tetrahydro-furan-2-ylmethyl ester] | 5500 |  | at least 40 fold |  | ≤ 3 |  |  |  |  | 1 to 10 | 5 to 10 | ~15 | depolymerized the spindle | All cells lacked a mitotic spindle |
